Measured values as given in patent US6444787B1, “Method of isolating a peptide which immunologically mimics microbial carbohydrates including group B streptococcal carbohydrates and the use thereof in a vaccine” (Research Development Institute, Inc., priority 1997, dated 2002).
Ends that are not written are not given here.

Tested on: anti-GBS antibodies
Assay: ELISA, binding of antibodies to synthetic peptide
Design: species or system murine
Conditions: peptide coated at 10 μg/ml; FIG. 1 panel A
Description: Microtiter wells were coated with peptide at 10 μg/ml and then blocked with 1% BSA. Test antibodies were added to the wells, incubated and washed. Antibody binding was detected with alkaline phosphatase conjugated anti-Ig and then substrate. The values are A405, mean of duplicate or triplicate samples. […] The binding of all antibodies to BSA was<0.1.
Capsular polysaccharide was coated directly onto microtiter wells.

Question: Which “Binding of monoclonal antibodies S7 and S9 to peptide” value does the source give for FDTGAFDPDWPAC here?
Answer: seen only with antibody S9
